This experiment concerns complex I of nuo-51^A357V (NDUFV1). Put plainly: complex I activity (rotenone sensitive NADH dehydrogenase, CI/CS) on crude mitochondrial extracts. It counts as cell-based, Podospora anserina. The settings on record: 1 µM ALV, 31.5° C., vs vehicle. The method, then:
Complex I activity (CI) was performed on crude mitochondria obtained after mixing the mycelium with glass beads in 0.4 M sucrose buffer and differential centrifugations. The rates of NADH consumption in presence and absence of rotenone was registered by spectrophotometry (340-380 nm) with 25 µg of mitochondria starting with NADH and quinone addition. Citrate synthase activity (CS) was determined on equivalent samples of mitochondria to express the complex I activity as the NADH dehydrogenase – rotenone sensitive activity relative to citrate synthase activity (CI/CS).
Experiments were performed at least five times and error bars represent the standard deviation. Differences between treated vs untreated cultures (VEH) were evaluated using the Pearson’s chi-square test, with significant p values < 0.05.

Results on 1 compound are retold here after patent US20230310348A1, “USE OF ALVERINE OR ITS DERIVATIVES FOR THE TREATMENT OF MITOCHONDRIAL DISEASES OR DYSFUNCTION ASSOCIATED WITH MITOCHONDRIAL COMPLEX I DEFICIENCIES” (ASSOCIATION FRANCAISE CONTRE LES MYOPATHIES, priority 2020, published 2023).

As for `CCN(CCCc1ccccc1)CCCc1ccccc1.O=C(O)CC(O)(CC(=O)O)C(=O)O` [ALV, Alverine citrate], the “complex I activity (CI/CS)” value was “significantly increased”.
